Experimental data published in ChEMBL document CHEMBL1201862, “PubChem BioAssay data set” (2004).
Activity calls are given as the source filed them.

Key:
[1] = biological target: Glucose-6-phosphate 1-dehydrogenase (Homo sapiens, UniProt P11413); test: inhibition of Homo sapiens G6PD, dose series – biochemical, fluorescence, selectivity assay for P. falciparum G6PD inhibitor project, dose response (AID 504792); format: functional
[2] = biological target: NACHT, LRR and PYD domains-containing protein 3 (Homo sapiens, UniProt Q96P20); test: NALP3 inhibitors in yeast, dose response, luminescent (AID 488799); format: functional
[3] = biological target: T1, Rac GTPase-activating protein 1 (Homo sapiens, UniProt Q9H0H5); test: blockers of MgcRacGAP-driven Rac1 GTP hydrolysis – biochemical, ADP Hunter fluorescence, primary and confirmatory, confirmation (AID 624330); format: functional
T1 sequence (Q9H0H5 whole entry): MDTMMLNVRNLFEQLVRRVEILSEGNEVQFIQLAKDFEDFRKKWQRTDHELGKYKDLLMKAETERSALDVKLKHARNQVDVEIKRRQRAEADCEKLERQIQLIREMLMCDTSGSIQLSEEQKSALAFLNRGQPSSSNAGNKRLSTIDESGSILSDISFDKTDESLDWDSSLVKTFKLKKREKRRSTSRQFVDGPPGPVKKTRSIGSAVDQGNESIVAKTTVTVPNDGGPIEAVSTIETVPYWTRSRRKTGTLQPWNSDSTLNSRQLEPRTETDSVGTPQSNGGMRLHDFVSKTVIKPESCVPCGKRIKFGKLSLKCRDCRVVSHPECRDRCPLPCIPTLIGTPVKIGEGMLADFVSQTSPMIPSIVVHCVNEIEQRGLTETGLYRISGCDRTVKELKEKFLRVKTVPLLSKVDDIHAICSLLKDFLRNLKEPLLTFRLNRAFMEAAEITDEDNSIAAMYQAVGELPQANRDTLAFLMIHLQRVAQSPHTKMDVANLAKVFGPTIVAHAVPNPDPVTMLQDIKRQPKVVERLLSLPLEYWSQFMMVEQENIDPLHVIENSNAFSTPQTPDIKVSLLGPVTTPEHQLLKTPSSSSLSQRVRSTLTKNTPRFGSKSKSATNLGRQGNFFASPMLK

[4] = biological target: Cyclin-dependent kinase 5/CDK5 activator 1 (Homo sapiens, UniProt Q00535); test: blockade of human CDK5 activity – biochemical, cherry-picked samples, set 2, dose response (AID 504545)
Chain of Cyclin-dependent kinase 5/CDK5 activator 1 (Q00535 whole entry): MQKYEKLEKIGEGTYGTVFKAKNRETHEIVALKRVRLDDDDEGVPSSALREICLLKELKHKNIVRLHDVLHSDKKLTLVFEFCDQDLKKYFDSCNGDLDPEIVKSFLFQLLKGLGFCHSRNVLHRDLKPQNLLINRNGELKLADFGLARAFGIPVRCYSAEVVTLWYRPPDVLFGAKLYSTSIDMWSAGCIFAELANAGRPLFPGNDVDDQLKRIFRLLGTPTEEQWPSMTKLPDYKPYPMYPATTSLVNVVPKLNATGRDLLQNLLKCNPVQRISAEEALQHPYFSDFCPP
Chain of Cyclin-dependent kinase 5/CDK5 activator 1 (Q15078 whole entry, further chain): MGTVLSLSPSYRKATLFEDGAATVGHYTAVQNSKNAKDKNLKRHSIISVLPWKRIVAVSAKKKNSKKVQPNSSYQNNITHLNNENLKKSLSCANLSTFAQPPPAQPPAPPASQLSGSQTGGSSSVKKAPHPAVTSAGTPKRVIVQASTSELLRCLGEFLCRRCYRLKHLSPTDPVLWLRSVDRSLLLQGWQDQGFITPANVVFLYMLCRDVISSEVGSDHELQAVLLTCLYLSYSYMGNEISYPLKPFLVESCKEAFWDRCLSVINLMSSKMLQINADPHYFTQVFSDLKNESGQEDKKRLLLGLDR

[5] = biological target: DNA dC->dU-editing enzyme APOBEC-3A (Homo sapiens, UniProt P31941); test: Dose Response confirmation of small molecule APOBEC3A DNA Deaminase Inhibitors via a fluorescence-based single-stranded DNA deaminase assay. [Related pubchem assays (depositor defined):AID493011, AID493024]; format: functional
Chain of DNA dC->dU-editing enzyme APOBEC-3A (P31941 whole entry): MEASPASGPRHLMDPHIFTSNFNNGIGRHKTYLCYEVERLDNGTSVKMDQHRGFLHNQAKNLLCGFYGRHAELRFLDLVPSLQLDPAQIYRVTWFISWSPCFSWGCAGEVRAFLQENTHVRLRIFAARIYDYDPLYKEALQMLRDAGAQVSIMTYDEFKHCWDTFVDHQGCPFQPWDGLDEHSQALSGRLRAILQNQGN

[6] = biological target: T2, Polyadenylate-binding protein 1 (Homo sapiens, UniProt P11940); test: blockers of PABP interaction with poly(A) – biochemical, fluorescence polarization, […] (AID 2014)
T2 sequence (P11940 whole entry): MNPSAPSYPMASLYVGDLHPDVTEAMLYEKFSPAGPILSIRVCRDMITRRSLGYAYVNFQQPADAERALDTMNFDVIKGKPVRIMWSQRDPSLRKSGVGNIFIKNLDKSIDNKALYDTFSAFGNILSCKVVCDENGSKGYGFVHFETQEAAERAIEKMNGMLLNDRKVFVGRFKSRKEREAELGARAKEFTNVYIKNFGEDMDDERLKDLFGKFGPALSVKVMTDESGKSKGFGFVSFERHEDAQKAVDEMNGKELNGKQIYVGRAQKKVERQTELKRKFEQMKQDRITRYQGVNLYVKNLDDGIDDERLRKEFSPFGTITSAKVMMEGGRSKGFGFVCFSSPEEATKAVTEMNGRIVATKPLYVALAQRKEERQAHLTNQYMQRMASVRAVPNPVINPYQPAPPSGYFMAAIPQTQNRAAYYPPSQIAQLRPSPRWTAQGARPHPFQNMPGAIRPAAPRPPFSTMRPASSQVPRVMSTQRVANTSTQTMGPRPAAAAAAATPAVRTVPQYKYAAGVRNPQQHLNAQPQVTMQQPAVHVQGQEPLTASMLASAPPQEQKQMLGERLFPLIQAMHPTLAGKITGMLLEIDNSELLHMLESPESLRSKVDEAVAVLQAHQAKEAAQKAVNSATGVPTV

[7] = biological target: T3, Eukaryotic translation initiation factor 4H (Homo sapiens, UniProt Q15056); test: eIF4H binding inhibition – biochemical, uHTS, fluorescence polarization, translation initiation inhibitor project, primary screen (AID 2012)
[8] = biological target: DNA dC->dU-editing enzyme APOBEC-3G (Homo sapiens, UniProt Q9HC16); format: functional;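 note: Dose-response counterscreen measuring inhibition of APOBEC3G DNA deaminase activity, run while confirming APOBEC3A inhibitors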
[9] = biological target: Cystic fibrosis transmembrane conductance regulator/Golgi-associated PDZ and coiled-coil motif-containing protein (Homo sapiens, UniProt P13569+Q9HD26); test: potency against CAL PDZ-peptide interaction – biochemical, fluorescence polarization, Cerulean-tagged CAL PDZ, cherry-picks, dose response (AID 504773)
[10] = biological target: Photoreceptor-specific nuclear receptor (Homo sapiens, UniProt Q9Y5X4); test: ligands suppressing NR2E3 nuclear receptor activity – biochemical, TR-FRET, dose response (AID 463256); format: functional
Chain of Photoreceptor-specific nuclear receptor (Q9Y5X4 whole entry): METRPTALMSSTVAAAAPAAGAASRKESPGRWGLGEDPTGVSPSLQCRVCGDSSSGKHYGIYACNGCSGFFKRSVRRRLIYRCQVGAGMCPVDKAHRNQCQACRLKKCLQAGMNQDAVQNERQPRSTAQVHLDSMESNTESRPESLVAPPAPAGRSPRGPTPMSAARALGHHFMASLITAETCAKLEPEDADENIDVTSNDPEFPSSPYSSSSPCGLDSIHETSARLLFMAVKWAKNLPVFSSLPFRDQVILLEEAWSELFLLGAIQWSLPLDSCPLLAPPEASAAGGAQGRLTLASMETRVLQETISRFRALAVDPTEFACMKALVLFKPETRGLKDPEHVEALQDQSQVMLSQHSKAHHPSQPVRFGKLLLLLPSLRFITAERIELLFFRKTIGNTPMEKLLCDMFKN

[11] = biological target: T4, Tyrosine-protein phosphatase non-receptor type 7 (Homo sapiens, UniProt P35236); test: Dose Response confirmation of compounds that inhibit HePTP. [Related pubchem assays (depositor defined):AID1059, AID1661, AID2085]; format: functional
T4 sequence (P35236 whole entry): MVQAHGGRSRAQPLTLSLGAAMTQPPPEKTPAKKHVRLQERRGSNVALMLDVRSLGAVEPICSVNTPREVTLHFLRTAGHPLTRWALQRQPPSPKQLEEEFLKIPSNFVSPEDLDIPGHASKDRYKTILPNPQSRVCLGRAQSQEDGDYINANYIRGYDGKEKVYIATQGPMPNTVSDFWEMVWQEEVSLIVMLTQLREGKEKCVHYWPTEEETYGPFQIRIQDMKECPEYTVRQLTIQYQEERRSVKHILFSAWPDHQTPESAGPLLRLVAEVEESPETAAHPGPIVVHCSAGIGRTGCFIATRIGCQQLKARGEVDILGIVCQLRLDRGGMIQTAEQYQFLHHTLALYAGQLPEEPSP

[12] = biological target: Peroxisome proliferator-activated receptor gamma/Nuclear receptor corepressor 2 (Homo sapiens, UniProt P37231+Q9Y618); test: Counterscreen for NR2E3 inverse agonists: TR-FRET-based biochemical high throughput dose response assay to identify inverse agonists of the interaction between peroxisome proliferator-activated receptor gamma (PPARg) and nuclear receptor co-repressor 2 (NCOR2).; format: functional
[13] = biological target: Dual specificity protein phosphatase 3 (Homo sapiens, UniProt P51452); test: Dose Response Confirmation of compounds that inhibit VHR1 in Fluorescent Assay. [Related pubchem assays (depositor defined):AID1661, AID1878]; format: functional
Chain of Dual specificity protein phosphatase 3 (P51452 whole entry): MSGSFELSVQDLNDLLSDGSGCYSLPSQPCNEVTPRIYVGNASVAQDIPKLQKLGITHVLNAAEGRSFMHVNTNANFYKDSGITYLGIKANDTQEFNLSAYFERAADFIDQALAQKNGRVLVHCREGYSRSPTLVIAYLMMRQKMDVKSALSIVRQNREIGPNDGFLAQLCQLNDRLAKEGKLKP

[14] = biological target: T3, Eukaryotic translation initiation factor 4H; test: inhibitors of translation initiation factor eIF4H – SAR follow-up (AID 435011); format: functional
[15] = biological target: Nuclear receptor subfamily 5 group A member 2 (Homo sapiens, UniProt O00482); format: functional, cell-based;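 note: HEK293T cells transfected with LRH-1 and a StAR promoter luciferase reporter; potency for inhibitors that lower LRH-1 driven reporter light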
Chain of Nuclear receptor subfamily 5 group A member 2 (O00482 whole entry): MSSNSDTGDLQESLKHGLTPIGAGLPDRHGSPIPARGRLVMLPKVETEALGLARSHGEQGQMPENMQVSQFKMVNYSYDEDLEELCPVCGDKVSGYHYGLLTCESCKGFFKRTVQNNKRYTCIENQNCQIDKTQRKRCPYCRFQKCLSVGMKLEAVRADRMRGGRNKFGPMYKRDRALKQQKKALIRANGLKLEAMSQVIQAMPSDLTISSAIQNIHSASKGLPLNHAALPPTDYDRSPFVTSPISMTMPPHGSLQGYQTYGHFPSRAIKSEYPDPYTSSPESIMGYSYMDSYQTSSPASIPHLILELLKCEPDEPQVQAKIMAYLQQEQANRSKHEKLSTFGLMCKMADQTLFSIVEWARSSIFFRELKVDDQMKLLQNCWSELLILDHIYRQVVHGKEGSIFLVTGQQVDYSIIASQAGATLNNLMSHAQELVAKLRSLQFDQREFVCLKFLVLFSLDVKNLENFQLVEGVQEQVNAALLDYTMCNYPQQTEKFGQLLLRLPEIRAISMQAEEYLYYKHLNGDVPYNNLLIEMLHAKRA

[16] = biological target: T2, Polyadenylate-binding protein 1; test: PABP inhibition in translation initiation, SAR follow-up (AID 435018); format: functional
Steroidogenic factor 1 = Steroidogenic factor 1 (Homo sapiens, UniProt Q13285); test: Counterscreen for inverse agonists of the liver receptor homolog-1 (LRH-1; NR5A2): Luminescence-based cell-based high throughput dose response assay to identify inverse agonists of the Steroidogenic Factor 1 Nuclear Receptor (SF1; NR5A1).; format: functional
Chain of Steroidogenic factor 1 (Q13285 whole entry): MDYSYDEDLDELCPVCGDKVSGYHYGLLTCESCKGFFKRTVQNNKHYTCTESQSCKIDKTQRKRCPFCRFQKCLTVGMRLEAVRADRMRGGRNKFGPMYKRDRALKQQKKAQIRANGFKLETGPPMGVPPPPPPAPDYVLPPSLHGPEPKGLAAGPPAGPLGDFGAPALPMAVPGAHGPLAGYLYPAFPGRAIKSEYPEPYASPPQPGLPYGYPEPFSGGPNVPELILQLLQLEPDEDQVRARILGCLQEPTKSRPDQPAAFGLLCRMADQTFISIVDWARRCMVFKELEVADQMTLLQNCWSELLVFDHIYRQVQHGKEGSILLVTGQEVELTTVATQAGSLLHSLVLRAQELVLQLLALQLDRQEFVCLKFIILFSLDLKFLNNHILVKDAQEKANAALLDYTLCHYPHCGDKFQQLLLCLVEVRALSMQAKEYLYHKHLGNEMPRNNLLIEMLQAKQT

[17] = nonselective StAR promoter luciferase inhibitors – cell-based, luminescence, luciferase reporter, counter-screen for LRH-1 inverse agonist project, dose response (AID 651969); format: functional
Interleukin-8 [18] = biological target: T5, Interleukin-8 (Homo sapiens, UniProt P10145); test: SAR analysis of GM-Tri-DAP induced IL-8 secretion in MCF-7/NOD1 cells - Set 2. [Related pubchem assays (depositor defined):AID1575, AID1578, AID2333]; format: functional, cell-based
T5 sequence (P10145 whole entry): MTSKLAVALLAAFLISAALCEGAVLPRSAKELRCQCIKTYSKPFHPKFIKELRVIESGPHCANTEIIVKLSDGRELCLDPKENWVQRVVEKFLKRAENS

HEK293 = test: cells; settings: Homo sapiens
Interleukin-8 [19] = biological target: T5, Interleukin-8; test: SAR analysis of Tumor necrosis factor alpha (TNF-alpha) induced IL-8 secretion in MCF-7/NOD1 cells - Set 2. [Related pubchem assays (depositor defined):AID1575, AID2250, AID2260]; format: functional, cell-based
Tumor necrosis factor = Tumor necrosis factor (Homo sapiens, UniProt P01375); test: analog potency on TNFa NF-kB signaling – cell-based, revised, SAR follow-up (AID 2337); format: functional
[20] = biological target: Nucleotide-binding oligomerization domain-containing protein 2 (Homo sapiens, UniProt Q9HC29); test: PubChem AID 2334; format: functional
Chain of Nucleotide-binding oligomerization domain-containing protein 2 (Q9HC29 whole entry, the tested form may be a part): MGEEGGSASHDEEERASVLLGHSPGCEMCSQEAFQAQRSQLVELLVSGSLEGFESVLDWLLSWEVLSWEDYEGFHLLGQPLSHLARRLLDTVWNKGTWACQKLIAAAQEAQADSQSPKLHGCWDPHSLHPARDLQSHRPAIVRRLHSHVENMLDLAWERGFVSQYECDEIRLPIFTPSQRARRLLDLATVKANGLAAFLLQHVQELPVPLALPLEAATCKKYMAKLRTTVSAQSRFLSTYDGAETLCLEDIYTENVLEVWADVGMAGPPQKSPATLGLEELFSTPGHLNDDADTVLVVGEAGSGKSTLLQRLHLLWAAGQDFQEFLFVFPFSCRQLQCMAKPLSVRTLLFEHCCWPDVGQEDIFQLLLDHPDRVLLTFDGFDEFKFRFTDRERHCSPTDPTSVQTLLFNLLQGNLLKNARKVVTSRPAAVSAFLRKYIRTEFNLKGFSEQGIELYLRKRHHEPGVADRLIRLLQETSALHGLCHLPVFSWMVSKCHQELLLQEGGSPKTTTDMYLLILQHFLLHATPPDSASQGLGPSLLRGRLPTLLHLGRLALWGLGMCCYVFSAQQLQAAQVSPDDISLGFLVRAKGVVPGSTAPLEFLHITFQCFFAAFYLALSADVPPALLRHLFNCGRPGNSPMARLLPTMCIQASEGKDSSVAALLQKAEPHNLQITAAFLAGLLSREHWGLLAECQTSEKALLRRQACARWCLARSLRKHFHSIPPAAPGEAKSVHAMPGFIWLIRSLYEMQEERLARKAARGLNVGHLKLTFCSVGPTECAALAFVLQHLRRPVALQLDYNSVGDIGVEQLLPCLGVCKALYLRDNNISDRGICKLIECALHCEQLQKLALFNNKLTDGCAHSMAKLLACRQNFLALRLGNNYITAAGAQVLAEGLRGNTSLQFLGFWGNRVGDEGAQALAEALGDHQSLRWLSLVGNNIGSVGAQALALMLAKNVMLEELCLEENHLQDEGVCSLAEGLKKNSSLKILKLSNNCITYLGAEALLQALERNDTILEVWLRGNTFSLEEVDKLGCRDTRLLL

[21] = biological target: T6, Nucleotide-binding oligomerization domain-containing protein 1 (Homo sapiens, UniProt Q9Y239); test: blockers of NOD1 pathway activity – revised, SAR follow-up (AID 2333); format: functional
T6 sequence (Q9Y239 whole entry): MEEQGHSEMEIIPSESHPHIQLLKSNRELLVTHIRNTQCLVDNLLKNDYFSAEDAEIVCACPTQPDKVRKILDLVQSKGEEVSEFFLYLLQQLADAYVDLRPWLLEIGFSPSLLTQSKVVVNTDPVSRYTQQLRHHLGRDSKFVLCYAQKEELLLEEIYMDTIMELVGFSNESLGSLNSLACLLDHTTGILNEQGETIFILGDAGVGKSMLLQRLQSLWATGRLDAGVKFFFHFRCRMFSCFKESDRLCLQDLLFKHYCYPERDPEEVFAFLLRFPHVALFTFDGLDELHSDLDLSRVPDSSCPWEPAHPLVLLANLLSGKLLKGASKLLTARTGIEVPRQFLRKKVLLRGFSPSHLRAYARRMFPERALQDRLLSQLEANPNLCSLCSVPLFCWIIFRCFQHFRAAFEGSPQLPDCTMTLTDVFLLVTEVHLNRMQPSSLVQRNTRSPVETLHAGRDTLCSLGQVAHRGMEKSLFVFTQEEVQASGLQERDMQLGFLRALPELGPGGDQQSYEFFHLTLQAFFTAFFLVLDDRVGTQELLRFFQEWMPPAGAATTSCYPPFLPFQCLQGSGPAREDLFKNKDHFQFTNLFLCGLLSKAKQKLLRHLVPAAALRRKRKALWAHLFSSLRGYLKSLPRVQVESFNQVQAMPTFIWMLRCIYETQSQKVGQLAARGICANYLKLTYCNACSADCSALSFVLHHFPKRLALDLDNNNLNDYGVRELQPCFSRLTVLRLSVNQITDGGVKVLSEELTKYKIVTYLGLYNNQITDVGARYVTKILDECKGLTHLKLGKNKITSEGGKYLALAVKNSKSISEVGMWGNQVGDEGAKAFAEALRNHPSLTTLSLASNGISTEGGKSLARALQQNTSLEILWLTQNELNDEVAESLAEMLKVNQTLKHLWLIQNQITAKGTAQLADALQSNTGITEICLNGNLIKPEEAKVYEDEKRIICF

Chain of Glucose-6-phosphate 1-dehydrogenase (P11413 whole entry, the tested form may be a part): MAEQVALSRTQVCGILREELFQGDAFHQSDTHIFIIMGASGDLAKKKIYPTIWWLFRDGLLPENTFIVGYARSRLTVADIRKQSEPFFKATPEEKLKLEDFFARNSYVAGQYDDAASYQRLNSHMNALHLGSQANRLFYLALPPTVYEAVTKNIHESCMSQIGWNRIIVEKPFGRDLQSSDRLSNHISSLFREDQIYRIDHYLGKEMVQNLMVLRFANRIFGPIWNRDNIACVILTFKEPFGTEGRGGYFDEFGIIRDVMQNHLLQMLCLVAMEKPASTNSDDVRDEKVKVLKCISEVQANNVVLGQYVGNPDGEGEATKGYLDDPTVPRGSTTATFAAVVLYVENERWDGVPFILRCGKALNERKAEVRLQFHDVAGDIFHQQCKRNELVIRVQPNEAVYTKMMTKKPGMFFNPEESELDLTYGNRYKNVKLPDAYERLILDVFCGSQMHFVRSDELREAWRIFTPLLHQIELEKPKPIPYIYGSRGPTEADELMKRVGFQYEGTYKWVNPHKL

## Cc1nc2ccc(Nc3nc4cc(S(=O)(=O)N5CCOCC5)ccc4o3)cc2s1
[1]
  IC50: > 80 µM (inactive)
[2]
  IC50: > 100 µM (inactive)

## ON=C1c2ccccc2-c2ccc(O)cc21
[3]
  IC50: 23.6 µM (active)
[4]
  AC50: 17.6 µM (active)

## Cn1ccccc1=Nc1cccc[n+]1C
[5]
  IC50: 2.8 µM (active)
[6]
  IC50: 6.54 µM (active)
[7]
  IC50: > 100 µM (inactive)
[8]
  IC50: 4.12 µM (active)

## O=C1CC(c2ccccc2)=C(c2ccccc2)C1
[9]
  AC50: 18.7 µM (active)

## O=C(Nc1ccc2oc(-c3cccnc3)nc2c1)c1ccc2c(c1)OCCO2
[10]
  IC50: 1.61 µM (active)
[11]
  IC50: 5.36 µM (active)
[12]
  IC50: 1.46 µM (active)
[13]
  IC50: 8.43 µM (active)

## CC(=O)Nc1ccc(NC(=O)CSc2ccc(-c3ccco3)nn2)cc1
[14]
  IC50: 31.1 µM (active)
[15]
  IC50: 35.9 µM (inactive)
[16]
  IC50: > 100 µM (inactive)
Steroidogenic factor 1
  IC50: 35.9 µM (inactive)
[17]
  IC50: 35.9 µM (inactive)

## COc1ccc(C(=O)Cn2c(N)nc3ccccc32)cc1
Interleukin-8 [18]
  IC50: > 25 µM (inactive)
HEK293
  IC50: > 20 µM (inactive)
Interleukin-8 [19]
  IC50: > 25 µM (inactive)
Tumor necrosis factor
  IC50: > 20 µM (inactive)
[20]
  IC50: > 20 µM (inactive)
[21]
  IC50: > 20 µM (inactive)
